{
  "source": "patent US11891601B2",
  "about": "“Method to enhance the transcription regulation of SUPT4H on genes containing repetitive nucleotide sequences” (National Yang-Ming University, priority 2018, dated 2024)",
  "key": {"[1]": {"test_system": "HD-Drosophila expressing mutant HTT97Q", "assay": "Rough eye phenotype in HD-Drosophila (Gmr-HTT97Q)", "format": "in vivo, Drosophila melanogaster", "settings": "10 μM 6CR plus 100 μM Tropolone in media", "experimental": "The Gmr-ga14-UAS-HTT97Q/cyo line expressing HTT97Q under the control of Gmr-gal4 in compound eyes was provided by MT SU (National Taiwan Normal University, Taipei, Taiwan). Fly stock was maintained and crossed at 25° C. on a standard cornmeal yeast agar medium.\nIn each compound treatment experiment, 15 Gmr-ga14-UAS-HTT97Q/cyo male flies were crossed with 15 Gmr-ga14-UAS-HTT-97Q/cyo females in a vial containing 10 mL of media supplemented with the testing compound at a final concentration of 10 μM 6CR (Sigma) or/and 100 μM Tropolone (Sigma). 6-chloropurine riboside (6CR) is a chemical reagent that inhibits the activity of SUPT4H by preventing the complex formation of SUPT4H/SUPT5H (Patent No.: US2018/0064744A1). Parent flies were removed after 7 days, and 4-day-old progenies carrying one Gmr-ga14-UAS-HTT97Q allele were collected for eye morphology examination. […] In each treatment group, flies were analyzed and normalized with control flies. […]\n(§1) Please refer to FIG. 8. […] After parent fly removal, the 4-day-old progenies carrying one Gmr-ga14-UAS-HTT97Q allele were collected and analyzed for eye morphology. […] 4-day-old progenies as described above were collected and analyzed the levels of mutant HTT by Western blotting. α-tubulin was included and served as a loading control. […]"}, "mutant HTT": {"test_system": "mutant HTT", "assay": "Mutant HTT protein level in HD-Drosophila by Western blotting", "format": "in vivo, Drosophila melanogaster", "settings": "10 μM 6CR plus 100 μM Tropolone in media, fly heads", "experimental": "For Drosophila samples, 15 males and 15 females HD flies were collected after each compound treatment. Their heads were isolated and homogenized with 1× sample buffer (50 mM Tris-HCl pH 7.5, 150 mM NaCl, 1% NP-40, 0.1% sodium dodecyl sulfate (SDS), 1% sodium deoxycholate, and blue dye) for protein lysate collection. Equivalent amounts of protein lysates were separated on 12% SDS-polyacrylamide gel, and then transferred to NC membranes (GE Healthcare Life Science). Detection of HTT and α-tubulin protein was performed as described above.\nIn each compound treatment experiment, 15 Gmr-ga14-UAS-HTT97Q/cyo male flies were crossed with 15 Gmr-ga14-UAS-HTT-97Q/cyo females in a vial containing 10 mL of media supplemented with the testing compound at a final concentration of 10 μM 6CR (Sigma) or/and 100 μM Tropolone (Sigma). […] In each treatment group, flies were analyzed and normalized with control flies. […]\nas §1"}},
  "data": [
    {"smiles": "O=c1cccccc1O", "note": "[Tropolone]", "values": [
      {"measurement": "rescue effect of rough eye phenotype by 6CR with co-treatment of Tropolone", "setting": "[1]", "value": "greatly improved"},
      {"measurement": "level of mutant HTT, 6CR with co-treatment of Tropolone", "setting": "mutant HTT", "value": "decreased accordingly"}
    ]}
  ]
}
